# Values quoted from earlier work as cited in US20240041944A1, “OPTIMIZED INDIVIDUALIZED PREBIOTIC COMPOSITIONS” (ISOThrive LLC, priority 2016, published 2024).
# “Also recorded” adds a separate entry of the source. Ends that are not written are not given here.
# Legend:
# [1] = test system: ascites tumors
# [2] = test system: Caenorhabditis elegans; conditions: incubation with rifamycin
# [3] = test system: cancer cell lines
# [4] = test system: Bacillus, Clostridium, Staphylococcus, Streptococcus, and Listeria spp.
# [5] = test system: Salmonella spp.; conditions: co-administered with EDTA
# [6] = test system: head/neck tumors; conditions: head and neck, mice
# [7] = can be autoclaved at 115° C.
Molecule,Cancer Cell Type affected [3],other results
CO[C@H]1/C=C/O[C@@]2(C)Oc3c(C)c(O)c4c(O)c(cc(O)c4c3C2=O)NC(=O)/C(C)=C\C=C\[C@H](C)[C@H](O)[C@@H](C)[C@@H](O)[C@@H](C)[C@H](OC(C)=O)[C@@H]1C [rifamycin],–,cytotoxicity [1]: cytotoxic; increase of lifespan [2]: up to 60%
Bovicin HC5,"MCF7 (breast cancer),; also recorded: HepG2 (liver cancer)",–
"Nisin: lantibiotic bacteriocin produced by Lactococcus lactis, 34-residue peptide (SEQ ID NO:2) (ITSISLCTPGCKTGALMGCNMKTATCNCSIHVSK; cysteine pairing not given here; also: lanthionine modifications; listed as Lactococcus lactis)","MCF7 (breast cancer),; also recorded: HepG2 (liver cancer)",antimicrobial activity [4]: active; activity against gram negative organisms [5]: effective; effect on tumorigenesis / tumors [6]: reduce tumorigenesis; thermal stability [7]: thermally stable
"Microcin E492: class IIa bacteriocin produced by K. pneumoniae (protein, UniProt Q9Z4N4 16-99, looked up) Microcin E492: GETDPNTQLLNDLGNNMAWGAALGAPGGLGSAALGAAGGALQTVGQGLIDHGPVNVPIPVLIGPSWNGSGSGYNSATSSSGSGS","HeLa (cervical cancer),; also recorded: Jurkat (leukemia); also recorded: RJ2.25",–
"Pyocin S2: class III bacteriocin produced by P. aeruginosa 42A (protein, UniProt Q06584 2-689, looked up) Pyocin-S2: AVNDYEPGSMVITHVQGGGRDIIQYIPARSSYGTPPFVPPGPSPYVGTGMQEYRKLRSTLDKSHSELKKNLKNETLKEVDELKSEAGLPGKAVSANDIRDEKSIVDALMDAKAKSLKAIEDRPANLYTASDFPQKSESMYQSQLLASRKFYGEFLDRHMSELAKAYSADIYKAQIAILKQTSQELENKARSLEAEAQRAAAEVEADYKARKANVEKKVQSELDQAGNALPQLTNPTPEQWLERATQLVTQAIANKKKLQTANNALIAKAPNALEKQKATYNADLLVDEIASLQARLDKLNAETARRKEIARQAAIRAANTYAMPANGSVVATAAGRGLIQVAQGAASLAQAISDAIAVLGRVLASAPSVMAVGFASLTYSSRTAEQWQDQTPDSVRYALGMDAAKLGLPPSVNLNAVAKASGTVDLPMRLTNEARGNTTTLSVVSTDGVSVPKAVPVRMAAYNATTGLYEVTVPSTTAEAPPLILTWTPASPPGNQNPSSTTPVVPKPVPVYEGATLTPVKATPETYPGVITLPEDLIIGFPADSGIKPIYVMFRDPRDVPGAATGKGQPVSGNWLGAASQGEGAPIPSQIADKLRGKTFKNWRDFREQFWIAVANDPELSKQFNPGSLAVMRDGGAPYVRESEQAGGRIKIEIHHKVRIADGGGVYNMGNLVAVTPKRHIEIHKGGK",HepG2 (liver cancer) and Im9,–
"Colicin E3: class III bacteriocin produced by E. coli (protein, UniProt P00646 1-551, looked up) Colicin E3: MSGGDGRGHNTGAHSTSGNINGGPTGLGVGGGASDGSGWSSENNPWGGGSGSGIHWGGGSGHGNGGGNGNSGGGSGTGGNLSAVAAPVAFGFPALSTPGAGGLAVSISAGALSAAIADIMAALKGPFKFGLWGVALYGVLPSQIAKDDPNMMSKIVTSLPADDITESPVSSLPLDKATVNVNVRVVDDVKDERQNISVVSGVPMSVPVVDAKPTERPGVFTASIPGAPVLNISVNNSTPAVQTLSPGVTNNTDKDVRPAGFTQGGNTRDAVIRFPKDSGHNAVYVSVSDVLSPDQVKQRQDEENRRQQEWDATHPVEAAERNYERARAELNQANEDVARNQERQAKAVQVYNSRKSELDAANKTLADAIAEIKQFNRFAHDPMAGGHRMWQMAGLKAQRAQTDVNNKQAAFDAAAKEKSDADAALSSAMESRKKKEDKKRSAENNLNDEKNKPRKGFKDYGHDYHPAPKTENIKGLGDLKPGIPKTPKQNGGGKRKRWTGDKGRKIYEWDSQHGELEGYRASDGQHLGSFDPKTGNQLKGPDPKRNIKKYL",P388 (lymphoma) and HeLa,–
"Colicin E1: class III bacteriocin produced by E. coli (protein, UniProt P02978 1-522, looked up) Colicin-E1: METAVAYYKDGVPYDDKGQVIITLLNGTPDGSGSGGGGGKGGSKSESSAAIHATAKWSTAQLKKTQAEQAARAKAAAEAQAKAKANRDALTQRLKDIVNEALRHNASRTPSATELAHANNAAMQAEDERLRLAKAEEKARKEAEAAEKAFQEAEQRRKEIEREKAETERQLKLAEAEEKRLAALSEEAKAVEIAQKKLSAAQSEVVKMDGEIKTLNSRLSSSIHARDAEMKTLAGKRNELAQASAKYKELDELVKKLSPRANDPLQNRPFFEATRRRVGAGKIREEKQKQVTASETRINRINADITQIQKAISQVSNNRNAGIARVHEAEENLKKAQNNLLNSQIKDAVDATVSFYQTLTEKYGEKYSKMAQELADKSKGKKIGNVNEALAAFEKYKDVLNKKFSKADRDAIFNALASVKYDDWAKHLDQFAKYLKITGHVSFGYDVVSDILKIKDTGDWKPLFLTLEKKAADAGVSYVVALLFSLLAGTTLGIWGIAIVTGILCSYIDKNKLNTINEVLGI","MCF7 (breast cancer),; also recorded: HS913T (fibrosarcoma)",–
